Assay [1] has as its target Tyrosine-protein kinase ABL1 (Homo sapiens) (UniProt P00519). Kind of assay: Inhibition of nonphosphorylated ABL1 (unknown origin) assessed as residual activity at 1000 nM by KINOMEscan analysis relative to control.
In assay [2] the target is T1, Dual specificity mitogen-activated protein kinase kinase 7 (Homo sapiens) (UniProt O14733).
T1 sequence (whole entry): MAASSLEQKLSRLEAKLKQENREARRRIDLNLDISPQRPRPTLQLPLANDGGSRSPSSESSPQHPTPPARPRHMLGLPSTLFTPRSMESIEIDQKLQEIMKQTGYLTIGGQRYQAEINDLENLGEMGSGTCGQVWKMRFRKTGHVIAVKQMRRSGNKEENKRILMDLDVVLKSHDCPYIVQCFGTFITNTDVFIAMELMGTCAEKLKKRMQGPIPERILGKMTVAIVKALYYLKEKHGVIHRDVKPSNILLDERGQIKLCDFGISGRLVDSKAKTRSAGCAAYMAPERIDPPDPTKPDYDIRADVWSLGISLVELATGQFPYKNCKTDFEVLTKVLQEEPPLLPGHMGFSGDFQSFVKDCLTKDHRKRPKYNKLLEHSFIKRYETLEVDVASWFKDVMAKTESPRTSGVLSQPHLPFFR
Kind of assay: Inhibition of MKK7 (unknown origin) assessed as residual activity at 1000 nM by KINOMEscan analysis relative to control.

In assay [3] the target is T2, Serine/threonine-protein kinase Nek2 (Homo sapiens) (UniProt P51955).
T2 sequence (whole entry): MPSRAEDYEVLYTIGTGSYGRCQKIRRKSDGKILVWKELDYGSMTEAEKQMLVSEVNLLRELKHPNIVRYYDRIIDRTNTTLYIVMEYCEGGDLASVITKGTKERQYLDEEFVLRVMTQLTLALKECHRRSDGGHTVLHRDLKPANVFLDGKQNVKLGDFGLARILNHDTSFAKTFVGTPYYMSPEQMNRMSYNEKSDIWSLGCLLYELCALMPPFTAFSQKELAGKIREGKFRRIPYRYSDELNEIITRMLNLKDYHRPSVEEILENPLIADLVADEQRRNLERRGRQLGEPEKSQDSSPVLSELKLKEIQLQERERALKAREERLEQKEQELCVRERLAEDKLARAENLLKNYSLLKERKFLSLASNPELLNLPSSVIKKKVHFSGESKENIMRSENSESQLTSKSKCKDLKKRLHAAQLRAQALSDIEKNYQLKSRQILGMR
Kind of assay: Inhibition of NEK2 (unknown origin) assessed as residual activity at 1000 nM by KINOMEscan analysis relative to control.

Assay [4] has as its target Platelet-derived growth factor receptor beta (Homo sapiens) (UniProt P09619). Kind of assay: Inhibition of PDGFRB (unknown origin) assessed as residual activity at 1000 nM by KINOMEscan analysis relative to control.
Assay [5] deals with T3, Serine/threonine-protein kinase TAO3 (Homo sapiens) (UniProt Q9H2K8).
T3 sequence (whole entry): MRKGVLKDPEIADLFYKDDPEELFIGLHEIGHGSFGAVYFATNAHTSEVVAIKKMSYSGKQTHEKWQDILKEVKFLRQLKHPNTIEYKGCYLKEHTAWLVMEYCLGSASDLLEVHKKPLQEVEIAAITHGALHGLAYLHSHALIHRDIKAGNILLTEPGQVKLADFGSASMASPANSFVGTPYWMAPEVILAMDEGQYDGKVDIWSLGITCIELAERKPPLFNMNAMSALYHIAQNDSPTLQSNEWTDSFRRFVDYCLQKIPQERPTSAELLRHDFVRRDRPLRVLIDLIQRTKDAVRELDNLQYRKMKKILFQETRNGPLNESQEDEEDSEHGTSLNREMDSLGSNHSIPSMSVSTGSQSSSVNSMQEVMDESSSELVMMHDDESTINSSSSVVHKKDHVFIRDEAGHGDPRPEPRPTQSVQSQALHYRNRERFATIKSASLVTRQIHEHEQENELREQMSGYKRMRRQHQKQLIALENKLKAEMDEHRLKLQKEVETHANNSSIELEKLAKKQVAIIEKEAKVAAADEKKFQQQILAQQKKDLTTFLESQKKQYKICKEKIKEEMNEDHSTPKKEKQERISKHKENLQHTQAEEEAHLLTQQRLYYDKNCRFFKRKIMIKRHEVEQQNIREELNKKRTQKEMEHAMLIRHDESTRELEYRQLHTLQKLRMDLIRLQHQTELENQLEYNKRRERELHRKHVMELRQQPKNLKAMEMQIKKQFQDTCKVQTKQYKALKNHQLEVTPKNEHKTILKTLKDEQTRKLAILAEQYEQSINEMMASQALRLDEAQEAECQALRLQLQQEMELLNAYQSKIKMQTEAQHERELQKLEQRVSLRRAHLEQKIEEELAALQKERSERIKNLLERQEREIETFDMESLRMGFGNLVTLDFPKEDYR
Put plainly: Inhibition of TAOK3 (unknown origin) assessed as residual activity at 1000 nM by KINOMEscan analysis relative to control.

The target in assay [6] is T4, Serine/threonine-protein kinase tousled-like 1 (Homo sapiens) (UniProt Q9UKI8).
T4 sequence (whole entry): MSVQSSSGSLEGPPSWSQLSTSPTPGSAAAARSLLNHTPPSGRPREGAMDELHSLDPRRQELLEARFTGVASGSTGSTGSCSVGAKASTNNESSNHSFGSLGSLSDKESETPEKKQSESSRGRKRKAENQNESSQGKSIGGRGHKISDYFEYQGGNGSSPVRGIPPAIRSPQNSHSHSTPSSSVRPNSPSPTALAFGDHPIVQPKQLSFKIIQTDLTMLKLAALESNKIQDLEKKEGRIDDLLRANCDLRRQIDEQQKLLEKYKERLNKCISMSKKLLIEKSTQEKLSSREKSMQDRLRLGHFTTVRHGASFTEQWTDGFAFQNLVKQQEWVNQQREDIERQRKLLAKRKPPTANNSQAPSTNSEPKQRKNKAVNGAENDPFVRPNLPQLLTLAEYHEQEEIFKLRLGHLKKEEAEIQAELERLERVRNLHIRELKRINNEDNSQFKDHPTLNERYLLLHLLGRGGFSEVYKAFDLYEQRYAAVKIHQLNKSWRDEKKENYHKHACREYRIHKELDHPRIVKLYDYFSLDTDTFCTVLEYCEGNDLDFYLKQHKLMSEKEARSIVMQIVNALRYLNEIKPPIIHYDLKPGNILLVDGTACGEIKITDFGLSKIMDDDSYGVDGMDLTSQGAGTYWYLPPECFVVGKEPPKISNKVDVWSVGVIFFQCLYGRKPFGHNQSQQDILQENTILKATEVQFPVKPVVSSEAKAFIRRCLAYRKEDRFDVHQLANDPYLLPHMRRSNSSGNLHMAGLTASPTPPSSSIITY
Put plainly: Inhibition of TLK1 (unknown origin) assessed as residual activity at 1000 nM by KINOMEscan analysis relative to control.

The target in assay [7] is Serine/threonine-protein kinase WNK3 (Homo sapiens) (UniProt Q9BYP7). Kind of assay: Inhibition of WNK3 (unknown origin) assessed as residual activity at 1000 nM by KINOMEscan analysis relative to control.

The structures appear in SMILES notation.

Chain of Serine/threonine-protein kinase WNK3 (Homo sapiens) (Q9BYP7 whole entry): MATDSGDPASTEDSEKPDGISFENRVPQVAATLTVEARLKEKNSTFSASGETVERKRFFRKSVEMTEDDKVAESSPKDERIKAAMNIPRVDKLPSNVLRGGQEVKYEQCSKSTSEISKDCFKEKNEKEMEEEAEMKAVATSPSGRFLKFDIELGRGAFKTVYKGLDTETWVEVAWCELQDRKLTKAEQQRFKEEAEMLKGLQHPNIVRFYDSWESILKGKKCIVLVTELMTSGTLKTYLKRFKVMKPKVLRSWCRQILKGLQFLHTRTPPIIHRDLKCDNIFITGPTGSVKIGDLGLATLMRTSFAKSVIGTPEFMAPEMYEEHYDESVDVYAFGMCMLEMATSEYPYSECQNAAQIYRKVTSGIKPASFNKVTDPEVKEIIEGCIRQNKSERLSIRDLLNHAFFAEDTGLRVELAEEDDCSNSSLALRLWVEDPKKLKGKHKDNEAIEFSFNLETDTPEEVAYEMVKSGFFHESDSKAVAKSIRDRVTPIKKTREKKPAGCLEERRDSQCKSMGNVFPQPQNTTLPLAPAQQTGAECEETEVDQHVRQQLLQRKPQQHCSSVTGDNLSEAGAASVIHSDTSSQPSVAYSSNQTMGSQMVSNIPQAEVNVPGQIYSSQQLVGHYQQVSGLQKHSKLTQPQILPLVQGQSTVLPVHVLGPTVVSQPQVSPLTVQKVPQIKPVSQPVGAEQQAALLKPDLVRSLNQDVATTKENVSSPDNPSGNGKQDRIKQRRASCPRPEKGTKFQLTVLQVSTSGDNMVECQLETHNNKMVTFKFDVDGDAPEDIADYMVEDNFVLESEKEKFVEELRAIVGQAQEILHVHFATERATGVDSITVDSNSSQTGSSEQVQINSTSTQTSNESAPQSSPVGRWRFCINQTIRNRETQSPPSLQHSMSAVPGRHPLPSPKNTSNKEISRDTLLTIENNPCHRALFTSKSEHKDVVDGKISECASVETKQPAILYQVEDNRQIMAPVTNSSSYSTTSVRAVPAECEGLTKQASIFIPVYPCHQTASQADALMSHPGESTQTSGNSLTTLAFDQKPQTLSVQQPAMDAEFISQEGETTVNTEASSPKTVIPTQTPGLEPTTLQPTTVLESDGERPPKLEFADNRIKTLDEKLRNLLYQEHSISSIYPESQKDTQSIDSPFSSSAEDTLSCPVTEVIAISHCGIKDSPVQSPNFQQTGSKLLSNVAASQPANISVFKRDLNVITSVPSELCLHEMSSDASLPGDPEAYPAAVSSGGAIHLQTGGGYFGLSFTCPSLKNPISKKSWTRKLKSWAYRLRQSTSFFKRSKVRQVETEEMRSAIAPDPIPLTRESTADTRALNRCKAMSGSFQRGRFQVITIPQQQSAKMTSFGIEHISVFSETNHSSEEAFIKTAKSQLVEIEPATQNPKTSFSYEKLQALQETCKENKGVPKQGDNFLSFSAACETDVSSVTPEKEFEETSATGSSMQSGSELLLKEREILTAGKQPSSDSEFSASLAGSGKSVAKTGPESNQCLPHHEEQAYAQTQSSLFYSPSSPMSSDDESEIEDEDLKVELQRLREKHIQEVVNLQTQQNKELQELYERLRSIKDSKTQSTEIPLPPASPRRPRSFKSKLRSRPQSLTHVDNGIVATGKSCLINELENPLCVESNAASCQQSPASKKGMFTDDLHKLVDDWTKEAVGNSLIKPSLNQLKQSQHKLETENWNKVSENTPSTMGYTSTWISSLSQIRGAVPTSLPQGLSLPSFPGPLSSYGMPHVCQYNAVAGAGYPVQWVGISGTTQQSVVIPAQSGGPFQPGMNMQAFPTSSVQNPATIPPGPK
Chain of Tyrosine-protein kinase ABL1 (Homo sapiens) (P00519 whole entry): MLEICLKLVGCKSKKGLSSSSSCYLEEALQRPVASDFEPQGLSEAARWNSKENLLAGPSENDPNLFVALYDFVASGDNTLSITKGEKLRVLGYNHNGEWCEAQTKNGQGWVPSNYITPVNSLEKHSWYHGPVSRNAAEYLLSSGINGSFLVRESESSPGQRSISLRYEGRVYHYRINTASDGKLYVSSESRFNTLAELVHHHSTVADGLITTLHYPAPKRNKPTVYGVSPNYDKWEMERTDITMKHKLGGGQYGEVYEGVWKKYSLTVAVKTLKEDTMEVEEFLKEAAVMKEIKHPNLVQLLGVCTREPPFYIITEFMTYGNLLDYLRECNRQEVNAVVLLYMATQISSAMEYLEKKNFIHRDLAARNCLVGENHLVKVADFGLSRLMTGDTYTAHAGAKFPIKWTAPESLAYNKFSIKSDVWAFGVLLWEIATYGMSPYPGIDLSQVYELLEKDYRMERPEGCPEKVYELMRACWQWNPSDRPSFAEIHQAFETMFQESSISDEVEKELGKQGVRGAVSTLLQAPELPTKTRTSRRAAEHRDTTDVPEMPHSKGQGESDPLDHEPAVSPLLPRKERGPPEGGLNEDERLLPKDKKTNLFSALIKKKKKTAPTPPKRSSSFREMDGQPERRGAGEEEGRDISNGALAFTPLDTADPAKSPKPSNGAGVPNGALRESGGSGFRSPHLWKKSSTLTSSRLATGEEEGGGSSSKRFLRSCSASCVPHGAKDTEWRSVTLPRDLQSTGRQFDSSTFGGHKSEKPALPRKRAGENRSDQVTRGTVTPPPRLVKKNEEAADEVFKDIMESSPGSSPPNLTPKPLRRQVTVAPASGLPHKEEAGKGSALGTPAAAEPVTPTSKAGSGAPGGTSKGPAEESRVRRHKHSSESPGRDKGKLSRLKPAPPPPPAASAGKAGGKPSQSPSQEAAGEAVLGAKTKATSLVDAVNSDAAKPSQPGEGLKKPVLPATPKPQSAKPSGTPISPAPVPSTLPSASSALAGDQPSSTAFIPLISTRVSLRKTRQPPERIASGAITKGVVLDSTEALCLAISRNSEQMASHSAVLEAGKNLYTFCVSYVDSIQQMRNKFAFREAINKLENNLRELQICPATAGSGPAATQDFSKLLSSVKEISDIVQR
Chain of Platelet-derived growth factor receptor beta (Homo sapiens) (P09619 whole entry): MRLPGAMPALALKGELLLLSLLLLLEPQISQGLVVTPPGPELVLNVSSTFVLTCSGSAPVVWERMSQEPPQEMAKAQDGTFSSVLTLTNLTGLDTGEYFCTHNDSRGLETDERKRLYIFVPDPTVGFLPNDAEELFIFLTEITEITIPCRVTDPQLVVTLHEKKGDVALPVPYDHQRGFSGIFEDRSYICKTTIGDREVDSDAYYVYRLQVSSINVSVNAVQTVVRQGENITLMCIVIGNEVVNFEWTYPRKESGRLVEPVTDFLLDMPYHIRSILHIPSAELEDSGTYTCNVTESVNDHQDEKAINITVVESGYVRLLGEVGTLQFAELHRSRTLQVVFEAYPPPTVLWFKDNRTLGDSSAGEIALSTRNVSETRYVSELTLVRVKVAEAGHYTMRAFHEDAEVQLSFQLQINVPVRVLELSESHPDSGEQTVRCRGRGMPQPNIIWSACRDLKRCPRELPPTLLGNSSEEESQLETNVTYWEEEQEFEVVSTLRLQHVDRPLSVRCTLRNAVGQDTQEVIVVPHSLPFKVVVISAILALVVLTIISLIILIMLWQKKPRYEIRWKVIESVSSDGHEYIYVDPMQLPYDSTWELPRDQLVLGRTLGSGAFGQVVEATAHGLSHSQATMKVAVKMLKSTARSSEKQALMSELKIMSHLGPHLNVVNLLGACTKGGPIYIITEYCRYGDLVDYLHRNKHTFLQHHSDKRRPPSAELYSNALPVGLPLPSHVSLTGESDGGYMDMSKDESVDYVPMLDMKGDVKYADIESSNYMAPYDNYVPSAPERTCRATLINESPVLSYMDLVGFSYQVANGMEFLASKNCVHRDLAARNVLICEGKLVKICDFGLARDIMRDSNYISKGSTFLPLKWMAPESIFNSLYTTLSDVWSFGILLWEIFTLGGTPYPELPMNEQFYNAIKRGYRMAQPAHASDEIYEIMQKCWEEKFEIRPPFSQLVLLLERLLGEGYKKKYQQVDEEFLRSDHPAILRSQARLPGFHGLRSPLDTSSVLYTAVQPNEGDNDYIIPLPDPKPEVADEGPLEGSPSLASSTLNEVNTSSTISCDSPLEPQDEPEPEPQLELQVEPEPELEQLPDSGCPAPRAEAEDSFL

Consider `COc1cc2nc(C)nc(N[C@H](C)c3cccc(-c4cn[nH]c4)c3)c2cc1OC`, for which the Activity stood at 54% in assay [1]; 98% in assay [2]; 89% in assay [3]; 100% in assay [4]; 100% in assay [5]; 78% in assay [6]. For the same compound, the Activity in assay [7] amounted to 93%.
Regarding `COc1cc2ncnc(N[C@H](C)c3cccc4ccccc34)c2cc1OC`, the Activity came out at 100% in assay [1]; 77% in assay [2]; 98% in assay [3]; 94% in assay [4]; 79% in assay [5]; 100% in assay [6]. Moreover, in assay [7], the Activity was found to be 99%.

(Values after ChEMBL document CHEMBL5678818, “Discovery of potent SOS1 inhibitors that block RAS activation via disruption of the RAS-SOS1 interaction” (Proc Natl Acad Sci U S A, 2019).)
